No end group written: not given here. *: point of attachment. FITC = O=C1OC2(c3ccc(O)cc3Oc3cc(O)ccc32)c2ccc(NC(=S)*)cc21
Columns and labels:
[1] = tested on: PKA-dependent process of Dictyostelium aggregation; assay: Aggregation of starved Dictyostelium cultures (PKA-dependent); type: cell-based, Dictyostelium discoideum; conditions: 10 micromolar
Method: FIG. 6. Cupid can transport small molecule cargo into cells. Starved Dictyostelium cultures were treated with no peptide (A), cupid B peptide (B), PKI peptide (C) and Cupid B-PKI peptide (D) and analysed for aggregation.
Upon starvation Dictyostelium initiates a developmental program leading to the aggregation of free-living amoebae. Genetic research has uncovered the crucial role that cyclic adenosine monophosphate (cAMP) plays in orchestrating as an extracellular chemoattractant in the initial aggregation process through Dictyostelium cAMP-dependent Protein Kinase (DdPKA). DdPKA can be inhibited by PKI, a 20 amino acid peptide sequence derived from an inhibitor of PKA, by PKI binding directly to the catalytic unit of PKA.
By creating a Cupid B-PKI fusion protein we aimed to establish that it prevents starving Dictyostelium cells from aggregating in vivo.

[2] = tested on: Dictyostelium discoideum amoeba cells; type: cell-based; conditions: for entry of fluorescently labeled peptide into cells: 10 μM, 1 hour, Dictyostelium cell; for time for half-maximal permeation: FITC-labelled peptide at 20 micromolar, Dictyostelium cells
Method: (§1) Peptides were labelled with Fluorescein isothiocyanate (FITC) using a FITC labeling kit as per instructions (Pierce, UK). When added to cell cultures the labeled peptides were visualized using a fluorescent microscope by exciting the FITC with a 488 nm spectral line, argon-ion laser (Excitation wavelength of 494 nm and an Emission wavelength of 518 nm).
AX2 wild type Dictyostelium cells were grown on SM agar plates seeded with Aerobacter aerogenes bacteria (also known as Klebsiella aerogenes) as a food source.
Cupid A ([…]; SEQ ID NO: 2) and Cupid B ([…]; SEQ ID NO: 1) were chemically synthesized labelled with FITC at the amino terminal. The peptides were added to cultured eukaryotic cells of Dictyostelium discoideum amoeba for varying amounts of time up to 2 hours. Cells were then washed and prepared for examination under a fluorescent microscope (FIG. 1). The time courses of permeation were compared to the class 3 CPP, the Antennapedia peptide, pANT which was also labelled with FITC in chemical synthesis (FIG. 2).

[3] = tested on: human embryonic kidney cells; assay: Permeation of FITC-labelled peptide into human embryonic kidney cells; type: cell-based; conditions: 10 μM, 1 hour, human kidney cell
Text: as §1

[4] = tested on: human fibroblasts; assay: Permeation of FITC-labelled peptide into human fibroblasts; type: cell-based; conditions: 10 μM, 1 hour, Human Fibroblast cell
Text: as §1

| Substance | effect on Dictyostelium aggregation [1] | entry of fluorescently labeled peptide into cells [2] | time for half-maximal permeation [2] [min] | entry of fluorescently labeled peptide into cells [3] | reversibility of permeation ([2]; media containing FITC-peptide replaced with peptide-free media) | entry of fluorescently labeled peptide into cells [4] |
| --- | --- | --- | --- | --- | --- | --- |
| Cupid B peptide: RRVQIWFQNKRAKVKR (SEQ ID NO: 1), cell penetrating peptide from Dictyostelium discoideum (listed as Dictyostelium discoideum) | neither the Cupid B peptide nor the PKI peptide alone have any effect on aggregation |  |  |  |  |  |
| FITC-Cupid A: Cupid A (SEQ ID NO: 2) chemically synthesized, labelled with FITC at the amino terminal ({FITC}-RSVQIWFQNRRAKAR; listed as Dictyostelium discoideum) |  | entering cultured cells | 28 |  |  |  |
| FITC-Cupid B: Cupid B (SEQ ID NO: 1) chemically synthesized, labelled with FITC at the amino terminal ({FITC}-RRVQIWFQNKRAKVKR; listed as Dictyostelium discoideum) |  | entering cultured cells | 17 | entering cultured cells | reversible | entering cultured cells |
